Results as given in patent US9428542B2, “Lupane triterpenoid derivatives and pharmaceutical use thereof” (priority 2012, dated 2016).
Read-outs that look alike come from different tables or passages of the source.

Key:
HIV-1IIIB = assay: HIV-1 full replication assay (HIV-1IIIB-infected MT-2 cells, supernatant read out on TZM-bl cells, β-Gal); assay type: cell-based
Experimental: The antiviral activity of the compounds of the present invention was determined in a HIV-1 full replication assay.
In this assay, MT-2 cells that are infected with HIV-1IIIB were co-cultured with different concentration of the tested compounds for 3 days and then supernatant is transferred into new 384-well plates containing TZM-bl cells (also called JC53-bl). TZM-bl cells that could be infected by various kinds of HIV-1 strains stably express a great amount of HIV-1 receptor, co-receptor CD4 molecular, and co-receptor CXCR4 and CCR5. TZM-bl cells harbor LTR-luciferase and β-gal two report genes. The expression of luciferase and β-gal reporter directed by HIV-1 LTR can be activated by Tat protein generated after HIV infection, and the quantity of expression is proportional to the quantity of HIV-1. Compounds that interfere with virus replication in MT-2 cells, maturation of the virus, or post-entry steps in the HIV lifecycle decrease the luciferase signal or β-gal signal. In this experiment, BVM (Bevirimat, PA-457) is used as a positive control drug.
Method for Inhibiting HIV-1 Replication Assay:
The MT-2 cells are infected at a Multiciplicity (MOI) of 0.01 TCID50, and then the MT-2 cells suspension was diluted to a needed concentration. 90 μl of the MT-2 cells suspension from above was added into 384-well plates containing 10 μl of the tested compounds.
Compounds were dissolved in DMSO and tested as 11 points 3-fold serial dilutions. After addition of cells to compound plates, plates were placed to humidified 5% CO2 37 incubator for 3 days. 10 μl of cells culture supernatant from the incubated plates was transferred into new black 384-well plates.
Adjusted the TZMb1 cells concentration and 40 μl of TZMb1 cells was added into each well in the black 384-well plates. After addition of the TZMb1 cells to the black plates, black plates were placed to humidified 5% CO2 37 incubator for 24 h, then β-Gal activity was measured.
The anti viral activity %=(measured number-lowest mean number)/(highest mean number-lowest mean number)×100. The IC50 values were calculated by Median Equation and the IC curve was generated by Graphpad Prism V 5.03.
(§1) TC50 is referred to the toxicity in MT-2 cells by the compounds tested at 50% concentration; IC50 is referred to the inhibiting HIV-1IIIB replication in MT-2 cells by the compounds tested at 50% concentration; Therapeutic Index (TI)=TC50/IC50.

MT-2 cells = assay: Compounds' cytotoxicity assay in MT-2 cells (CellTiter-Glo); assay type: cell-based; set-up: unit not given here; details: toxicity in MT-2 cells, 3 days
Experimental: 3. Method for Compounds' Cytotoxicity Assay:
The MT-2 cells are diluted to a needed concentration. 90 μl of the MT-2 cells suspension was added into 384-well plates containing 10 μl of the tested compounds. Compounds were dissolved in DMSO and tested as 11 points 3-fold serial dilutions. After addition of cells to compound plates, plates were placed to humidified 5% CO2 37 incubator for 3 days. The Luciferase activity was measured by CellTiter-Glo® Luminescent Cell Viability Assay kit (Promega Corp., WI, USA).
as §1

[1] = Human immunodeficiency virus 1, MT2, 72 h, inhibiting HIV-1IIIB replication in MT-2 cells, 3 days, read-out: IC50 (PM)
[2] = Human immunodeficiency virus 1, MT2, HIV replication in MT-2 cell (HIV-1IIIB) assay, read-out: IC50

Compound	IC50 (HIV-1IIIB; [1])	TC50 (PM) (MT-2 cells)	IC50 (HIV-1IIIB; [2])	IC50 (HIV-1IIIB; Human immunodeficiency virus 1, MT2, 72 h, read-out: IC50 (PM))
CC(C)C1=C2[C@H]3CC[C@@H]4[C@@]5(C)CC[C@H](OC(=O)CC(C)(C)C(=O)O)C(C)(C)[C@@H]5CC[C@@]4(C)[C@]3(C)CC[C@@]2(Cc2nnc(-c3ccc(Cl)cc3)o2)CC1=O [Compound 22-1]	3.3 nM	46		
CC(C)C1=C2[C@H]3CC[C@@H]4[C@@]5(C)CC[C@H](OC(=O)CC(C)(C)C(=O)O)C(C)(C)[C@@H]5CC[C@@]4(C)[C@]3(C)CC[C@@]2(c2cc(=O)n(Cc3ccc(Cl)cc3)n2C)CC1=O [91′-1]		22		
CC(C)C1=C2[C@H]3CC[C@@H]4[C@@]5(C)CC[C@H](OC(=O)CC(C)(C)C(=O)O)C(C)(C)[C@@H]5CC[C@@]4(C)[C@]3(C)CC[C@@]2(Cc2nnc(-c3ccc(C(F)(F)F)cn3)o2)CC1=O [Compound 22-12]	0.4 nM	31		
CC(C)C1=C2[C@H]3CC[C@@H]4[C@@]5(C)CC[C@H](OC(=O)CC(C)(C)C(=O)O)C(C)(C)[C@@H]5CC[C@@]4(C)[C@]3(C)CC[C@@]2([C@@H](O)c2nnc(-c3ccc(Cl)cc3)o2)CC1=O [Compound 127-1]	1.6 nM	200		
CC(C)C1=C2[C@H]3CC[C@@H]4[C@@]5(C)CC[C@H](OC(=O)CC(C)(C)C(=O)O)C(C)(C)[C@@H]5CC[C@@]4(C)[C@]3(C)CC[C@@]2(c2ncc(-c3ccc(Cl)cc3)o2)CC1=O [Compound 65]	58 nM	17.68		
CC(C)C1=C2[C@H]3CC[C@@H]4[C@@]5(C)CC[C@H](OC(=O)CC(C)(C)C(=O)O)C(C)(C)[C@@H]5CC[C@@]4(C)[C@]3(C)CC[C@@]2(Cc2nnc(Cc3ccc(Cl)cc3)o2)CC1=O [Compound 33]	1.6 nM	18		
CC(C)C1=C2[C@H]3CC[C@@H]4[C@@]5(C)CC[C@H](OC(=O)CC(C)(C)C(=O)O)C(C)(C)[C@@H]5CC[C@@]4(C)[C@]3(C)CC[C@@]2(Cc2nnc(-c3ccc(Cl)cc3F)o2)CC1=O [Compound 22-13]	1.7 nM	35		
CC(C)C1=C2[C@H]3CC[C@@H]4[C@@]5(C)CC[C@H](OC(=O)CC(C)(C)C(=O)O)C(C)(C)[C@@H]5CC[C@@]4(C)[C@]3(C)CC[C@@]2(Nc2nnc(-c3ncc(Cl)cn3)o2)CC1=O [Compound 141-3]	1.7 nM	22		
CCn1c([C@@]23CC[C@]4(C)[C@H](CC[C@@H]5[C@@]6(C)CC[C@H](OC(=O)CC(C)(C)C(=O)O)C(C)(C)[C@@H]6CC[C@]54C)C2=C(C(C)C)C(=O)C3)cc(=O)n1-c1ccc(Cl)cc1 [Compound 98-5]	≤ 0.17 nM	13		
CC(C)C1=C2[C@H]3CC[C@@H]4[C@@]5(C)CC[C@H](OC(=O)CC(C)(C)C(=O)O)C(C)(C)[C@@H]5CC[C@@]4(C)[C@]3(C)CC[C@@]2(c2cc(=O)n(-c3ccc(F)cc3)n2C)CC1=O [Compound 98-3]	0.46 nM	42		
CC(C)C1=C2[C@H]3CC[C@@H]4[C@@]5(C)CC[C@H](OC(=O)CC(C)(C)C(=O)O)C(C)(C)[C@@H]5CC[C@@]4(C)[C@]3(C)CC[C@@]2(c2c(Cl)c(=O)n(-c3ccc(Cl)cc3)n2CCN(C)C)CC1=O [Compound 156-2]			< 2 nM	
CC(C)C1=C2[C@H]3CC[C@@H]4[C@@]5(C)CC[C@H](OC(=O)CC(C)(C)C(=O)O)C(C)(C)[C@@H]5CC[C@@]4(C)[C@]3(C)CC[C@@]2(c2nnc(-c3ccc(Cl)cc3)n2CCN(C)C)CC1=O [Compound 116-3]	0.55 nM	33		
CC(C)C1=C2[C@H]3CC[C@@H]4[C@@]5(C)CC[C@H](OC(=O)CC(C)(C)C(=O)O)C(C)(C)[C@@H]5CC[C@@]4(C)[C@]3(C)CC[C@@]2(c2cc(=O)n(CC(N)=O)n2C)CC1=O [Compound 91-6]	2 nM	48		
CNC(=O)Cn1c(=O)cc([C@@]23CC[C@]4(C)[C@H](CC[C@@H]5[C@@]6(C)CC[C@H](OC(=O)CC(C)(C)C(=O)O)C(C)(C)[C@@H]6CC[C@]54C)C2=C(C(C)C)C(=O)C3)n1C [Compound 91-7]	0.7 nM	68		
CC(C)C1=C2[C@H]3CC[C@@H]4[C@@]5(C)CC[C@H](OC(=O)CC(C)(C)C(=O)O)C(C)(C)[C@@H]5CC[C@@]4(C)[C@]3(C)CC[C@@]2(c2cc(=O)n(Cc3ccc(Cl)cn3)n2C)CC1=O [Compound 91-9]	≤ 0.17 nM	26		
CC(C)C1=C2[C@H]3CC[C@@H]4[C@@]5(C)CC[C@H](OC(=O)CC(C)(C)C(=O)O)C(C)(C)[C@@H]5CC[C@@]4(C)[C@]3(C)CC[C@@]2(Cc2nnc(-c3ccc(F)cn3)o2)CC1=O [Compound 22-18]	1.7 nM	48		
CC(C)C1=C2[C@H]3CC[C@@H]4[C@@]5(C)CC[C@H](OC(=O)CC(C)(C)C(=O)O)C(C)(C)[C@@H]5CC[C@@]4(C)[C@]3(C)CC[C@@]2(c2cc(=O)n(CC(=O)N(C)C)n2C)CC1=O [Compound 91-8]	3.3 nM	48		
CC(C)C1=C2[C@H]3CC[C@@H]4[C@@]5(C)CC[C@H](OC(=O)CC(C)(C)C(=O)O)C(C)(C)[C@@H]5CC[C@@]4(C)[C@]3(C)CC[C@@]2([C@H](O)c2nnc(-c3ccc(Cl)cc3)o2)CC1=O [Compound 127-2]	25 nM	45		
CC(C)C1=C2[C@H]3CC[C@@H]4[C@@]5(C)CC[C@H](OC(=O)CC(C)(C)C(=O)O)C(C)(C)[C@@H]5CC[C@@]4(C)[C@]3(C)CC[C@@]2(c2nnc(Cc3ccc(Cl)cc3)o2)CC1=O [Compound 38]	1.6 nM	100		
CC(C)C1=C2[C@H]3CC[C@@H]4[C@@]5(C)CC[C@H](OC(=O)CC(C)(C)C(=O)O)C(C)(C)[C@@H]5CC[C@@]4(C)[C@]3(C)CC[C@@]2(c2cc(=O)n(-c3ccc(Cl)cn3)n2C)CC1=O [Compound 98-7]	≤ 0.17 nM	200		
CC(C)C1=C2[C@H]3CC[C@@H]4[C@@]5(C)CC[C@H](OC(=O)CC(C)(C)C(=O)O)C(C)(C)[C@@H]5CC[C@@]4(C)[C@]3(C)CC[C@@]2([C@@H](O)c2nnc(-c3ccc(Cl)cc3)n2CCN(C)C)CC1=O [Compound 165-1]			< 2 nM	
CC(C)C1=C2[C@H]3CC[C@@H]4[C@@]5(C)CC[C@H](OC(=O)CC(C)(C)C(=O)O)C(C)(C)[C@@H]5CC[C@@]4(C)[C@]3(C)CC[C@@]2([C@@H](O)c2nnc(-c3ccc(Cl)cc3)n2CCN)CC1=O [Compound 164-1]			< 2 nM	
CC(C)C1=C2[C@H]3CC[C@@H]4[C@@]5(C)CC[C@H](OC(=O)CC(C)(C)C(=O)O)C(C)(C)[C@@H]5CC[C@@]4(C)[C@]3(C)CC[C@@]2(c2cc(=O)n(CCN(C)C)n2C)CC1=O [Compound 91-4]			< 2 nM	
CC(C)C1=C2[C@H]3CC[C@@H]4[C@@]5(C)CC[C@H](OC(=O)CC(C)(C)C(=O)O)C(C)(C)[C@@H]5CC[C@@]4(C)[C@]3(C)CC[C@@]2(c2cc(=O)n(Cc3ccc(Cl)cc3)n2C)CC1=O [Compound 91-1]		41		
C=C(C)[C@@H]1CC[C@]2(C(=O)O)CC[C@]3(C)[C@H](CC[C@@H]4[C@@]5(C)CC[C@H](OC(=O)CC(C)(C)C(=O)O)C(C)(C)[C@@H]5CC[C@]43C)[C@@H]12 [BVM, Bevirimat, reference compound]				5 nM
CC(C)C1=C2[C@H]3CC[C@@H]4[C@@]5(C)CC[C@H](OC(=O)CC(C)(C)C(=O)O)C(C)(C)[C@@H]5CC[C@@]4(C)[C@]3(C)CC[C@@]2(c2c(Cl)c(=O)n(-c3ccc(Cl)cc3)n2CCN)CC1=O [Compound 155-2]			< 2 nM	
CC(C)C1=C2[C@H]3CC[C@@H]4[C@@]5(C)CC[C@H](OC(=O)CC(C)(C)C(=O)O)C(C)(C)[C@@H]5CC[C@@]4(C)[C@]3(C)CC[C@@]2(c2cc(=O)n(CCN(C)C)n2C)CC1 [Compound 89-3]			< 5 nM	
CC(C)C1=C2[C@H]3CC[C@@H]4[C@@]5(C)CC[C@H](OC(=O)CC(C)(C)C(=O)O)C(C)(C)[C@@H]5CC[C@@]4(C)[C@]3(C)CC[C@@]2(c2c(Cl)c(=O)n(-c3ccc(Cl)cc3)n2C)CC1=O [Compound 98-8]			< 2 nM	
